PMC5863483, “Low HLA binding of diabetes-associated CD8+ T-cell epitopes is increased by post translational modifications” (BMC Immunology, 2018)
Where two headings read alike, the source gives them in different places. *1 amine or outer side, *2 acyl side, *3 side chain or, on linkers, in order; H or OH if unused. Where a SMILES comes first, the peptide text is derived from it. Where no end group is shown, it is not given here. [ ]: non-standard residue; d: D form. γGlu = O=C(O)[C@H](CCC(=O)[*:2])N[*:1]; Cya = N[C@@H](CS(=O)(=O)O)C(=O)O

Molecular target: HLA-A*02:01 (Homo sapiens, UniProt P04439, D140Y/D185E/D98H/E176V/E277Q/G131W/G231S/I119V/I121R/I166T/I218V/L300P/L318F/N151K/N90K/P208A/P217A/Q86G/Q94H/R138H/R169H/T345S)
Test: HLA-peptide competition binding assay, A*02:01
[1] = post-translationally modified insulin-derived peptide, radiolabeled ligand competition, purified MHC, two-day incubation, three or more independent experiments, read-out: A*02:01 binding, Modified
[2] = post-translationally modified insulin peptide, competition binding assay, a dash indicates IC50 >40,000 nM, read-out: A*02:01 binding (IC50 nM) Modified
[3] = read-out: IC50 nM, target assay A*02:01
[4] = unmodified (WT) insulin peptide, competition binding assay, a dash indicates IC50 >40,000 nM, read-out: A*02:01 binding (IC50 nM) WT
[5] = unmodified (wild type) insulin-derived peptide, radiolabeled ligand competition, purified MHC, two-day incubation, three or more independent experiments, read-out: A*02:01 binding, WT
[6] = read-out: A*02:01 binding (IC50 nM) WT
[7] = read-out: A*02:01 binding (IC50 nM) Modified, post-translationally modified insulin peptide, competition binding assay, a dash indicates IC50 >40,000 nM

CC(C)C[C@H](NC(=O)[C@@H](N)Cc1ccc(O)cc1)C(=O)N[C@H](C(=O)N[C@@H](CS(=O)(=O)O)C(=O)NCC(=O)N[C@@H](CCC(=O)O)C(=O)N[C@@H](CCCNC(=N)N)C(=O)NCC(=O)N[C@@H](Cc1ccc(O)cc1)C(=O)O)C(C)C [YLVBGERGY] (H-YLV[Cya]GERGY-OH)
IC50 [1]: 3240 nM

CC(C)C[C@H](NC(=O)[C@H](Cc1c[nH]cn1)NC(=O)CC[C@H](N)C(=O)O)C(=O)N[C@@H](CS)C(=O)NCC(=O)N[C@@H](CO)C(=O)N[C@@H](Cc1c[nH]cn1)C(=O)N[C@@H](CC(C)C)C(=O)N[C@H](C(=O)N[C@@H](CCC(=O)O)C(=O)O)C(C)C [ZHLCGSHLVE] (γGlu-HLCGSHLVE-OH; N-terminus and C-terminus assumed)
IC50 [2]: > 40000 nM

CC(C)C[C@H](NC(=O)[C@H](Cc1c[nH]cn1)NC(=O)CC[C@H](N)C(=O)O)C(=O)N[C@@H](CS)C(=O)NCC(=O)N[C@@H](CO)C(=O)N[C@@H](Cc1c[nH]cn1)C(=O)N[C@@H](CC(C)C)C(=O)N[C@H](C(=O)O)C(C)C [ZHLCGSHLV] (γGlu-HLCGSHLV-OH; N-terminus and C-terminus assumed)
IC50 [2]: > 40000 nM

CC[C@H](C)[C@H](NC(=O)[C@H](CO)NC(=O)[C@@H](NC(=O)[C@H](CS)NC(=O)[C@H](CS)NC(=O)[C@H](CCC(N)=O)NC(=O)[C@H](CCC(=O)O)NC(=O)[C@@H](NC(=O)[C@@H](NC(=O)CN)[C@@H](C)CC)C(C)C)[C@@H](C)O)C(=O)O [reference compound] (H-GIVEQCCTSI-OH)
IC50 [3]: 7450 nM

CC[C@H](C)[C@H](NC(=O)[C@H](CC(N)=O)NC(=O)[C@H](C)NC(=O)[C@H](CC(C)C)NC(=O)[C@@H](N)CCCCN)C(=O)N[C@@H](CCC(N)=O)C(=O)N[C@@H](CS)C(=O)N[C@@H](CC(C)C)C(=O)N[C@@H](CS)C(=O)N[C@@H](CC(C)C)C(=O)O [reference compound] (H-KLANIQCLCL-OH)
IC50 [3]: 97 nM

CC[C@H](C)[C@H](NC(=O)[C@H](CC(N)=O)NC(=O)[C@H](C)NC(=O)[C@H](CC(C)C)NC(=O)[C@@H](N)CCCCN)C(=O)N[C@@H](CCC(N)=O)C(=O)N[C@@H](CS)C(=O)N1CCC[C@H]1C(=O)N[C@@H](CS)C(=O)N[C@@H](CC(C)C)C(=O)O [reference compound] (H-KLANIQCPCL-OH)
IC50 [3]: 121 nM

CC(C)C[C@H](NC(=O)[C@@H](N)CCCNC(=N)N)C(=O)N[C@@H](CCCNC(=N)N)C(=O)N1CCC[C@H]1C(=O)N[C@@H](CC(C)C)C(=O)N[C@@H](CS)C(=O)N[C@@H](CS)C(=O)N[C@H](C(=O)N[C@@H](C)C(=O)O)[C@@H](C)O [reference compound] (H-RLRPLCCTA-OH)
IC50 [3]: 8230 nM

CC(C)C[C@H](NC(=O)[C@@H](N)[C@@H](C)O)C(=O)N[C@@H](CO)C(=O)N[C@@H](CO)C(=O)N[C@@H](CCCNC(=N)N)C(=O)N[C@H](C(=O)N[C@@H](CS)C(=O)N[C@@H](CS)C(=O)N[C@@H](CCCNC(=N)N)C(=O)N[C@H](C(=O)O)[C@@H](C)O)C(C)C [reference compound] (H-TLSSRVCCRT-OH)
IC50 [3]: 2780 nM

ALARGAGTVPL [reference compound]
IC50 [3]: 29 nM

ALEGSLQKR
IC50 [4]: > 40000 nM

ALEGSLQKRG
IC50 [4]: > 40000 nM

ALGDLFQSI [reference compound]
IC50 [3]: 76 nM

ALTAVAEEV [reference compound]
IC50 [3]: 1310 nM

ALWGPDPAAA [reference compound]
IC50 [3]: 1010 nM

AVAANIVLTV [reference compound]
IC50 [3]: 575 nM

CGERGFFYT
IC50 [4]: > 40000 nM

CGERGFFYTP
IC50 [4]: > 40000 nM

CGERGYFYT
IC50 (read-out: A*02:01 binding (IC50 nM) Modified): 26300 nM

CGERGYFYTP
IC50 [2]: > 40000 nM

CGSHLVEAL [CGSHLVEAL]
IC50 [4]: > 40000 nM

CGSHLVEALY
IC50 [5]: 33700 nM

DEHLCGSHL
IC50 [2]: > 40000 nM

DEHLCGSHLV
IC50 [2]: > 40000 nM

EALYLVCGE
IC50 [6]: 12000 nM

EALYLVCGER
IC50 [5]: 10100 nM

EGSLQKRGI
IC50 [4]: > 40000 nM

EGSLQKRGIV
IC50 [4]: > 40000 nM

EHLCGSHLV
IC50 [1]: 7240 nM

EHLCGSHLVE
IC50 [2]: > 40000 nM

ELAEYLYNI [reference compound]
IC50 [3]: 637 nM

ERGYFYTPK
IC50 [2]: > 40000 nM

ERGYFYTPKT
IC50 [2]: > 40000 nM

ERGYYYTPK
IC50 [7]: > 40000 nM

ERGYYYTPKT
IC50 [1]: 5730 nM

FFYTPKTRR
IC50 [4]: > 40000 nM

FFYTPKTRRE
IC50 [4]: > 40000 nM

FIQVYEVERA [reference compound]
IC50 [3]: 7020 nM

FLFAVGFYL [reference compound]
IC50 [3]: 1.1 nM

FLIVLSVAL [FLIVLSVAL, reference compound]
IC50 [3]: 26 nM

FLLSLFSLWL [reference compound]
IC50 [3]: 16 nM

FLQDVMNIL [reference compound]
IC50 [3]: 70 nM

FLWSVFMLI [reference compound]
IC50 [3]: 26 nM

FLWSVFWLI [reference compound]
IC50 [3]: 55 nM

FMTSSWWGA [reference compound]
IC50 [3]: 378 nM

FMTSSWWRA [reference compound]
IC50 [3]: 101 nM

FMTSSWWRAPL [reference compound]
IC50 [3]: 84 nM

FVDEHLCGS
IC50 [2]: > 40000 nM

FVDEHLCGSH
IC50 [2]: > 40000 nM

FVNQHLCGS
IC50 [4]: > 40000 nM

FVNQHLCGSH
IC50 [6]: 13200 nM

FYTPKTRREA
IC50 [4]: > 40000 nM

GERGFFYTP
IC50 [4]: > 40000 nM

GERGYFYTP
IC50 [2]: > 40000 nM

GERGYFYTPK
IC50 [2]: > 40000 nM

GERGYYYTP
IC50 [7]: > 40000 nM

GERGYYYTPK
IC50 [2]: > 40000 nM

GIPPAPHGV [reference compound]
IC50 [3]: 219 nM

GIPPAPRGV [reference compound]
IC50 [3]: 1230 nM

GLLQVHHSCPL [reference compound]
IC50 [3]: 5.8 nM

GLPAGAAAQA [reference compound]
IC50 [3]: 530 nM

GSHLVEALYL
IC50 [6]: 1770 nM

GSLQKRGIV
IC50 [6]: 32700 nM
